Measurements from patent US11759412B2, “Personal care compositions with glutathione precursor comprising 4-substituted resorcinols and amino acids” (Conopco, Inc., priority 2016, dated 2023).

Key:
Type in all cases: cell-based
[1] = biological target: T1, tyrosinase in Human primary melanocytes (Homo sapiens, UniProt P14679); test: Tyrosinase Activity Assay (in situ, melanocyte lysate, DOPA/MBTH); details: Table 4, GAP where present: glutamine 32 uM, cystine 40 uM, glycine 129 uM, 72 hours
T1 construct: host or cells: Human primary melanocytes
T1 sequence (P14679 19-529): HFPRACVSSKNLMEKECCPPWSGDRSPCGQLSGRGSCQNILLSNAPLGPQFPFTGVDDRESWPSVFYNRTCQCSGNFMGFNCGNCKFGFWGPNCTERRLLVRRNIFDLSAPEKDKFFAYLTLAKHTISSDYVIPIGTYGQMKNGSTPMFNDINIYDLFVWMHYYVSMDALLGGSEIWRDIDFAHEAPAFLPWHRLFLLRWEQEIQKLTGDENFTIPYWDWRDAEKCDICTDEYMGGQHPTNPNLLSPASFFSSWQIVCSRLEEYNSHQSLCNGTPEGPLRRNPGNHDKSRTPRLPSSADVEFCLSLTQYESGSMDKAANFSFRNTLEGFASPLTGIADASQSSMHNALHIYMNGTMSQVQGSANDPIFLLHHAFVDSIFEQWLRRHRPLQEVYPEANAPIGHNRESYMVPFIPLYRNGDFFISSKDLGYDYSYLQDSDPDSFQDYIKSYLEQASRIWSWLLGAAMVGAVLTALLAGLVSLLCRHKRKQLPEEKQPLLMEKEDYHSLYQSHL
Procedure: Human primary melanocytes (Cascade Biologics, now ThermoFisher Scientific) were grown in melanocytes growth medium (MGM) with human melanocyte growth supplement (both media components from ThermoFisher Scientific). Melanocytes were seeded at 1×10^4 cells/well in a 96 wells plate and cultures left undisturbed for 24 hrs in a 5% CO2 humidified incubator at 37° C. At 24 hrs post-seeding, cells were treated with GAP amino acids (consisting of glutamine (32 uM), cystine (40 uM), glycine (129 uM)) alone or in combination with test reagents described above, and left undisturbed for another 72 hours. Subsequently, cell viability was assessed and the cells were then lysed and progressed for determination of in situ tyrosinase activity. Cultures were rinsed twice with 1× phosphate-buffered saline and lysed with 40 uL of 0.5% TritonX 100 for 1 hour on an ice bed. In situ tyrosinase activity was visualized by addition of 60 μl of 50 mM potassium phosphate buffer (pH 6.8) containing 2 mM DOPA (3,4 dihydroxy phenylalanine) and 4 mM MBTH reagent (3-Methyl-2-Benzothiazolinone hydrazone hydrochloride) for 1 hour at 37° C. The reaction was stopped by the addition of 100 uL of ice-cold 10% tricholoracetic acid and then centrifuged at approximately 300 g for 10 minutes at 4° C. The soluble supernatant was separated from the pellet and the optical density read in a TECAN plate-reader (540 nm filter). The spectrophotometric optical density at 540 nm for untreated cells (no active) is considered as 100% tyrosinase activity. Tyrosinase activity is expressed after correction for cell numbers (activity/viability) and represented as % control.

[2] = tested on: Human Keratinocytes; test: Reactive Oxygen Species (ROS) Assay (CellROX green, menadione); details: for synergistic decrease in ROS production, combination with GAP amino acids vs either alone: resorcinol/test reagent combined with GAP, + menadione
Procedure: Human Keratinocytes (Promocell, Heidelberg, Germany) were maintained in EpiLife® keratinocyte medium containing 60 uM calcium chloride and 1% Human Keratinocyte Growth Supplement (HKGS) in a humidified incubator with an atmosphere containing 5% CO2 at 37° C. The medium was refreshed every other day. Subsequently, cells were trypsinized at 90% confluency and seeded at a density of 1-2×10^4 per well into 96-well plates with black wall and clear bottom. On the second day after seeding, cell medium was replaced with Hank's Balanced Salt Solution (HBSS) with or without menadione (10-25 uM), GAP (typically at 49 uM pyroglutamic acid, 60 uM cystine, 194 uM glycine), GAP vehicle (0.2 mM NaOH, pH 7.5), above-described additional test reagents, or combinations of GAP with additional test reagents or L-cystine esters alone, and incubated for additional 18 hours. For ROS detection, CellROX green (Life Tech, Thermo Fisher Scientific, Rockford, USA) reagent was added into each well to a final concentration of 15-25 uM and incubated for additional 2-4 hours at 37° C. in a humidified incubator. The ROS fluorescence was detected using a Tecan microplate reader (Excitation/Emission=490/525). Relative ROS production was calculated with normalization based on the vehicle control treatment which was set to 100%. Where indicated, percent protection was calculated as a comparison to menadione alone treatment, using the measured relative fluorescent units in the following equation: […]
ROS levels were evaluated together with cell viability because it is possible to get a false negative for ROS if treatment is so toxic, that at the time of assay, cells are dead (and there are no longer any detectable ROS). Decrease in ROS levels is meaningful if cells are still viable.

[3] = tested on: Aged Human Keratinocytes; test: Glutathione Assay (total glutathione, GSH-GSSG Glo, menadione challenge); details: for synergistic increase in GSH synthesis, combination with GAP amino acids vs either alone: resorcinol/test reagent combined with GAP, + menadione
Procedure: Aged Human Keratinocytes (Cascade Biologics, now ThermoFisher Scientific, Waltham, Mass.) were maintained in Epi Life® medium containing 60 uM calcium chloride and 1% Human Keratinocyte Growth Supplement (both media components from ThermoFisher Scientific) in a humidified incubator with an atmosphere containing 5% CO2 at 37° C. The medium was refreshed every 2-3 days. Subsequently, cells were trypsinized at 90% confluency and seeded at a density of 1×10^4 per well into 96-well plates with white wall and clear bottom. One or two days after seeding, cell medium was replaced with Hank's Balanced Salt Solution (HBSS), and keratinocytes were pre-treated with GAP (or 0.12-0.240 mM sodium hydroxide vehicle control, pH 7.5) alone or in combination with additional test reagents described above or L-cystine esters alone for 1-2 hours. The concentration of all amino acids constituting the GAP mixture used in this assay are designated in the data tables, and fully described in the abbreviations list below.
After one or two hours of pre-treatment with GAP or additional test reagents, alone or in combination, keratinocytes were then challenged with 25 uM menadione (Sigma-Aldrich), a known inducer of oxidative stress. After 18-20 hours, cells were harvested and analyzed for total glutathione levels using a commercially available kit (GSH-GSSG GLo Assay, Promega), a luminescence-based system for the detection and quantification of total glutathione in cultured cells. In summary, after cell treatment, the media was removed and replaced with a cell lysis reagent for 5 minutes at 20-25° C.; note, all remaining steps were also conducted at 20-25° C. Next, a luciferase generation reagent was added to each well and incubated for 30 minutes. Following this step, a luciferin detection reagent was added to each well and plates were incubated for 15 minutes. Finally, plates were then read for luminescence in a FlexStation 3 plate reader (Molecular Devices). Total glutathione levels were calculated after interpolation of glutathione concentrations from a standard curve. Experimental conditions were typically conducted in at least triplicate determinations. Statistical significance was calculated using 1-way ANOVA. Percent protection was calculated by using the calculated glutathione levels from each experiment in the following equation: […]

[4] = tested on: Human Keratinocytes; test: Cell Viability Assay (CCK-8, menadione); details: for Cell viability (% of vehicle of control): Table 2H; for % Protection (improvement vs vehicle control + menadione), cell viability / Cell viability (% of control): Table 2D
Procedure: Human Keratinocytes (Promocell, Heidelberg, Germany) were maintained in EpiLife® keratinocyte medium containing 60 uM calcium chloride and 1% Human Keratinocyte Growth Supplement (HKGS). The medium was refreshed every other day. Subsequently, cells were trypsinized at 90% confluency and seeded at a density of 2×10^4 per well into 96-well transparent tissue culture plates. On the second day after seeding, cell medium was replaced with treatments as described above in ROS assay section. After 18 hours, […] (CCK-8) reagent (Dojindo, Kumamoto, Japan) was diluted 1:10 in HBSS and incubated with cells for 4 h at 37° C. in a humidified incubator. Optical absorption at 450 nm was measured using a Tecan Safire2 plate reader. Relative viability was calculated with normalization based on the vehicle control treatment, which was set to 100%.
Where indicated, percent protection was calculated as a comparison to menadione alone treatment, using the measured relative absorbance units in the following equation: […]

[5] = Table 1A, HR 20 uM where present, + menadione 25 uM

## CCc1ccc(O)cc1O [ER, 4-ethylresorcinol]
[1]; resorcinol (HR or ER) 5 uM
  inhibition at 5 µM: 67%
[1]; resorcinol (HR or ER) 10 uM
  inhibition at 10 µM: 68%
[2]; Table 2H, ER 10 uM + menadione
  Mean ROS production (% of vehicle control): 287.5%
[2]; Table 2H, ER 20 uM + menadione
  Mean ROS production (% of vehicle control): 308.3%
[2]
  synergistic decrease in ROS production, combination with GAP amino acids vs either alone: not observed
[3]; Table 2C, ER 40 uM + menadione
  % Protection (improvement vs. vehicle control + menadione): 0%
  Glutathione Synthesis, Mean (uM glutathione): 0.36 µM
[3]; Table 2C, ER 50 uM + menadione
  % Protection (improvement vs. vehicle control + menadione): −4%
  Glutathione Synthesis, Mean (uM glutathione): 0.25 µM
[3]; Table 2C, ER 60 uM + menadione
  % Protection (improvement vs. vehicle control + menadione): −1%
  Glutathione Synthesis, Mean (uM glutathione): 0.34 µM
[3]
  synergistic increase in GSH synthesis, combination with GAP amino acids vs either alone: synergistic increase
[4]; ER 10 uM + menadione
  Cell viability (% of vehicle of control): 36.6%
[4]; ER 20 uM + menadione
  Cell viability (% of vehicle of control): 39.8%

## CCCCCCc1ccc(O)cc1O [HR, 4-hexylresorcinol]
[1]; resorcinol (HR or ER) 5 uM
  Tyrosinase activity inhibition, Mean of % Inhibition: 63^1%
[1]; resorcinol (HR or ER) 10 uM
  Tyrosinase activity inhibition, Mean of % Inhibition: 71^1%
[2]; Table 2D, HR 10 uM + menadione
  % protection (improvement vs vehicle control + menadione), ROS: 69.6^3%
  Mean ROS production (% of vehicle control): 153.4^3%
[2]; Table 2D, HR 20 uM + menadione
  % protection (improvement vs vehicle control + menadione), ROS: 76.49^3%
  Mean ROS production (% of vehicle control): 118.7^3%
[2]
  synergistic decrease in ROS production, combination with GAP amino acids vs either alone: synergistic decrease
[3]; [5]
  % Protection (improvement vs. vehicle control + menadione): 22^1%
  Glutathione Synthesis, Mean (uM glutathione): 0.46^1 uM
[3]; Table 2A, HR 10 uM + menadione
  % Protection (improvement vs. vehicle control + menadione): 4%
  Glutathione Synthesis, Mean (uM glutathione): 0.24 µM
[3]; Table 2A, HR 20 uM + menadione
  % Protection (improvement vs. vehicle control + menadione): 5%
  Glutathione Synthesis, Mean (uM glutathione): 0.28 µM
[3]; Table 2A, HR 40 uM + menadione
  % Protection (improvement vs. vehicle control + menadione): 1%
  Glutathione Synthesis, Mean (uM glutathione): 0.19 µM
[3]; Table 2A, HR 60 uM + menadione
  % Protection (improvement vs. vehicle control + menadione): 0%
  Glutathione Synthesis, Mean (uM glutathione): 0.14 µM
[3]
  synergistic increase in GSH synthesis, combination with GAP amino acids vs either alone: synergistic increase
[4]; HR 10 uM + menadione
  % Protection (improvement vs vehicle control + menadione), cell viability: 18.85^3%
  Cell viability (% of control): 65.1^3%
[4]; HR 20 uM + menadione
  % Protection (improvement vs vehicle control + menadione), cell viability: −79.00%
  Cell viability (% of control): 11.0%
